Assay results published in patent US9552457B2, “Reprogramming effector protein interactions to correct epigenetic defects in cancer” (BRITISH COLUMBIA CANCER AGENCY BRANCH, priority 2012, dated 2017).
Where two headings read alike, the source gives them in different places.

What was measured:
[1] = system: DoHH-2, OCI-LY3, WSU-DLCL2 (all wild-type for MLL2); assay: alamarBlue cell proliferation assay, MLL2 wild-type cell lines; assay type: cell-based; conditions: in words
Protocol: Diffuse large B-cell lymphoma cell lines were maintained in RPMI medium 1640 (Life Technologies) supplemented with 10% (v/v) fetal bovine serum (Life Technologies) and 1% penicillin/streptomycin (Life Technologies) in a 37° C. incubator with 5% CO2, humidified atmosphere. Cell line DOHH2 was obtained from DSMZ. Pfeiffer was obtained from ATCC. SU-DHL-9 was obtained from Martin Dyer (University of Leicester, UK).
(§1) Compounds were initially solubilized in DMSO at a concentration of 10 mM. This compound solution was further diluted 1:100 in RPMI medium 1640 to a final concentration of 100 μM. Ninety microliters of cells maintained at a concentration of 4×10^5 cells/mL were dispensed into wells of a MICROTEST™ 96-well Assay Plate, Optilux™ (BD). Ten microliters of the 100 μM compound solution were then added to the cells resulting in a final compound concentration of 10 μM. Each compound was tested in triplicate. Ten microliters of a 1:100 DMSO to RPMI medium 1640 solution were also added to 90 μL of cells as a carrier control. Furthermore, each plate included wells containing only RPMI medium 1640 to serve as a background noise control as well as cells that were completely untreated. Compounds were incubated with the cells in a 37° C. incubator with 5% CO2, humidified atmosphere for 48 hours before being subjected to the alamarBlue® cell proliferation assay (Life Technologies). Raw fluorescent units were corrected for background noise and normalized to the carrier-treated control.
The activity of Compound 3 in vitro was investigated further using the cell lines DoHH-2, OCI-LY3, WSU-DLCL2 (all wild-type for MLL2) and SU-DHL9. In addition, the dose response for Compound 2 was investigated in cell lines mutant for MLL2 or both MLL2 and EZH2. The dose response for Compound 3 was investigated in a MLL2 mutant cell line. Methods were as described for Example 3. Cell-line WSU-DLCL2 was obtained from DSMZ and OCI-Ly lines 3 was obtained from Louis Staudt (US National Institutes of Health).

[2] = system: SU-DHL-9 (MLL2 homozygous indel mutant) cell line; assay: alamarBlue cell proliferation assay, SU-DHL-9 cell line; assay type: cell-based, human; conditions: for activity at 10 µM: Homo sapiens, read-out: % Cell Proliferation; for activity as worded in SAR analysis (selective toxicity against SU-DHL-9): in words, restates Tables 3 and 4
Protocol: Cell line DOHH2 was obtained from DSMZ. Pfeiffer was obtained from ATCC. SU-DHL-9 was obtained from Martin Dyer (University of Leicester, UK).
as §1, with “This compound solution was further diluted 1:100 in RPMI medium 1640 to a final concentration of 100 μM.” left out, “Ten microliters of a 1:100 DMSO to RPMI medium 1640 solution were also added to 90 μL of cells as a carrier control. Furthermore, each plate included wells containing only RPMI medium 1640 to serve as a background noise control as well as cells that were completely untreated.” left out

[3] = system: DoHH2 Cells (wildtype for EZH2, MEF2B and MLL2); assay: Cell viability of lymphoma cell lines, DoHH-2; assay type: cell-based; design: Effect on Cell Viability (% survival) DoHH2 Cells: concentration or dose not given beside the values; conditions: Table 5
Protocol: (§2) Compound 50 was tested for its effect on the viability of three lymphoma cell lines in vitro using standard methods. The cell lines tested were: DoHH-2 (wildtype for EZH2, MEF2B and MLL2); WSU-DLCL2 (EZH2 mutation Y641F (wildtype for MEF2B and MLL2)) and DB (EZH2 mutation Y641N, the MEF2B mutation D83V and three mutations in MLL2 (two of which lead to a truncated protein after residue Q2736 and the third allele has a 1 base pair deletion at residue P480)).
(§3) Compound 51 (NSC2540) was tested for its effect on the viability of four lymphoma cell lines in vitro using standard methods. The cell lines tested were DoHH-2, WSU-DLCL2, DB and SU-DHL-9 (EZH2 wildtype, MEF2B wildtype, MLL2 indel).

[4] = system: WSU-DLCL2 Cells (EZH2 mutation Y641F); assay: Cell viability of lymphoma cell lines, WSU-DLCL2; assay type: cell-based, human; design: Effect on Cell Viability (% survival) WSU-DLCL2 Cells: concentration or dose not given beside the values; conditions: Table 5
Protocol: as §2, §3

[5] = Table 3, scaffold A, 10 μM, 48 hours, normalized to carrier-treated control, SU-DHL-9
[6] = Table 4, scaffold B, 10 μM, 48 hours, normalized to carrier-treated control, SU-DHL-9

| Structure (SMILES) | Effect on Cell Viability (% survival) DoHH2 Cells [3] [%] | Effect on Cell Viability (% survival) WSU-DLCL2 Cells [4] [%] | other results |
| --- | --- | --- | --- |
| C=C(CN(C)C)C(=O)c1cc(C)ccc1C [Compound 1, 2-dimethylaminomethyl-1-(2,5-dimethyl-phenyl)-propenone] | – | – | activity against wild-type cells [1]: inactive; activity at 10 µM [2, 5]: < 10%; activity against the MLL2 double LoF mutant cell line ([2]; SU-DHL-9, in words): active; activity as worded in SAR analysis (selective toxicity against SU-DHL-9) [2]: active |
| C=CS(=O)(=O)c1ccc2ccccc2c1 [Compound 6, 2-ethenylsulfonylnaphthalene] | – | – | activity at 10 µM [2, 5]: 69%; activity as worded in SAR analysis (selective toxicity against SU-DHL-9) [2]: only moderate activity |
| C=C(CNC(C)(C)C)C(=O)c1ccccc1 [Compound 8, 2-[(tert-butylamino)methyl]-1-phenylprop-2-en-1-one] | – | – | activity at 10 µM [2, 5]: 92% |
| O=C1c2ccccc2-c2c(NC(=O)C(Cl)Cl)cccc21 [Compound 9, 2,2-dichloro-N-(9-oxofluoren-4-yl)acetamide] | – | – | activity at 10 µM [2, 6]: 117% |
| C=C(CN1CCOCC1)C(=O)c1ccccc1 [Compound 11, 2-(morpholin-4-ylmethyl)-1-phenylprop-2-en-1-one] | – | – | activity at 10 µM [2, 5]: 26% |
| CC(=O)C(=O)c1ccccc1 [Compound 12] | – | – | activity at 10 µM ([2]; 48 h): 105% |
| C=CC(=O)c1ccccc1 [Compound 13] | – | – | activity at 10 µM [2, 5]: 137% |
| C=C(CN(C)C)C(=O)c1ccc(C(=O)C(=C)CN(C)C)cc1 [Compound 14] | – | – | activity at 10 µM [2, 5]: 93%; activity as worded in SAR analysis (selective toxicity against SU-DHL-9) [2]: lacks activity |
| C=C(CN(C)C)C(=O)c1ccc(C)cc1C [Compound 15] | – | – | activity at 10 µM [2, 5]: 61% |
| C=C(CN(C)C)C(=O)c1ccccc1C [Compound 16] | – | – | activity at 10 µM [2, 5]: 107%; activity as worded in SAR analysis (selective toxicity against SU-DHL-9) [2]: inactive or minimally active |
| COc1ccccc1C(=O)C(=O)CN(C)C [Compound 17] | – | – | activity at 10 µM [2, 5]: 89%; activity as worded in SAR analysis (selective toxicity against SU-DHL-9) [2]: inactive or minimally active |
| C=C(CN(C)C)C(=O)c1ccccc1 [Compound 19] | – | – | activity at 10 µM [2, 5]: 77%; activity as worded in SAR analysis (selective toxicity against SU-DHL-9) [2]: inactive or minimally active |
| C=C(CN(C)C)C(=O)c1ccc(OC)cc1 [Compound 20] | – | – | activity at 10 µM [2, 5]: 83% |
| C=CCCC(=C)c1ccccc1 [Compound 21] | – | – | activity at 10 µM [2, 5]: 105% |
| O=C1c2ccccc2-c2cccc(NC(=O)C(Cl)Cl)c21 [Compound 22] | – | – | activity at 10 µM [2, 6]: 86%; activity as worded in SAR analysis (selective toxicity against SU-DHL-9) [2]: partially active |
| CC(=O)NC(CC(=O)Nc1cccc2c1C(=O)c1ccccc1-2)C(C)=O (stereo not drawn) [Compound 23] | – | – | activity at 10 µM [2, 6]: 114%; activity as worded in SAR analysis (selective toxicity against SU-DHL-9) [2]: inactive |
| CC(=O)Nc1cccc2c1C(=O)c1ccccc1C2=O [Compound 24] | – | – | activity at 10 µM [2, 6]: 107%; activity as worded in SAR analysis (selective toxicity against SU-DHL-9) [2]: inactive |
| OC(CBr)c1cc(-c2ccccc2)nc2ccccc12 (stereo not drawn) [Compound 25] | 100 | 60 | – |
| CC(O)c1cc(-c2ccccc2)nc2ccccc12 (stereo not drawn) [Compound 26] | 100 | 90 | – |
| O=C(CBr)c1cc(-c2ccc(Cl)cc2)nc2ccccc12 [Compound 27] | 90 | 40 | – |
| CC(=O)c1cc(-c2ccc(Cl)cc2)nc2ccccc12 [Compound 28] | 100 | 100 | – |

| Structure (SMILES) | Effect on Cell Viability (% survival) DoHH2 Cells [3] [%] | Effect on Cell Viability (% survival) WSU-DLCL2 Cells [4] [%] | other results |
| --- | --- | --- | --- |
| CC(O)c1cc(-c2ccc(Cl)cc2)nc2ccccc12 (stereo not drawn) [Compound 29] | 100 | 80 | – |
| O=C(CBr)c1cc(-c2ccc(Cl)cc2)nc2cc(Cl)ccc12 [Compound 30] | 60 | 40 | – |
| OC(CBr)c1cc(-c2ccc(Cl)cc2)nc2cc(Cl)ccc12 (stereo not drawn) [Compound 31] | 100 | 100 | – |
| CC(=O)c1cc(-c2ccc(Cl)c(Cl)c2)nc2c(Cl)cc(Cl)cc12 [Compound 32] | 100 | 90 | – |
| O=C(c1cc(-c2ccc(Cl)c(Cl)c2)nc2c(Cl)cc(Cl)cc12)C1NN1 [Compound 33] | 100 | 100 | – |
| OC(CBr)c1cc(-c2ccccc2)nc2c(Cl)cc(Cl)cc12 (stereo not drawn) [Compound 34] | 100 | 90 | – |
| O=C(CBr)c1cc(-c2ccc(Cl)cc2)nc2c(-c3ccccc3)cccc12 [Compound 35] | 20 | 17 | – |
| OC(CBr)c1cc(-c2ccc(Cl)cc2)nc2c(-c3ccccc3)cccc12 (stereo not drawn) [Compound 36] | 100 | 90 | – |
| O=C(Cl)c1cc(-c2ccc(Cl)cc2)nc2c(-c3ccccc3)cccc12 [Compound 37] | 100 | 80 | – |
| OC(c1cc(-c2ccc(Cl)cc2)nc2cc(Cl)ccc12)N1CCCCC1 (stereo not drawn) [Compound 38] | 100 | 80 | – |
| OC(c1cc(-c2ccc(Cl)cc2Cl)nc2cc(Cl)ccc12)C1CCCCN1 (stereo not drawn) [Compound 39] | 60 | 20 | – |
| OC(c1cc(-c2ccc(Cl)cc2)nc2ccccc12)C1CCCCN1 (stereo not drawn) [Compound 40] | 100 | 50 | – |
| OC(c1cc(-c2cccc(Cl)c2)nc2ccccc12)C1CCCCN1 (stereo not drawn) [Compound 41] | 17 | 10 | – |
| OC(c1cc(-c2ccccc2)nc2c(Cl)cc(Cl)cc12)C1CCCCN1 (stereo not drawn) [Compound 42] | 30 | 10 | – |
| OC(c1cc(-c2ccccc2)nc2cc(Cl)ccc12)C1CCCCN1 (stereo not drawn) [Compound 43] | 40 | 10 | – |
| OC(c1cc(-c2ccccc2)nc2c1ccc1ccccc12)C1CCCCN1 (stereo not drawn) [Compound 44] | 10 | 10 | – |
| CCN(CC)CC(O)c1cc(-c2ccc(Cl)cc2)nc2cc(Cl)ccc12 (stereo not drawn) [Compound 45] | 100 | 80 | – |
| CCCN(CCC)CC(O)c1cc(-c2ccc(Cl)cc2)nc2c(C)c(Cl)ccc12 (stereo not drawn) [Compound 46] | 100 | 90 | – |
| Cc1c(Cl)ccc2c(C(O)CN(C)C)cc(-c3ccc(Cl)cc3)nc12 (stereo not drawn) [Compound 47] | 100 | 100 | – |
| Cc1c(Cl)ccc2c(C(=O)NN)cc(-c3ccc(Cl)cc3)nc12 [Compound 48] | 90 | 40 | – |
| Cc1c(Cl)ccc2c(C(=O)CNCc3ccccc3)cc(-c3ccc(Cl)cc3)nc12 [Compound 49] | 70 | 50 | – |
